According to US6462066B2, “Method and composition for treatment of ischemic neuronal reperfusion injury” (University of South Florida, priority 1999, dated 2002):

What was measured:
[1] = Dantrolene treatment of the patient of Example 1 (post-operative bilateral ischemic optic neuropathy), visual acuity and visual fields; assay type: in vivo, human; conditions: Example 1 patient
Description: A patient undergoes back surgery lasting 8 hours and, upon awakening after 16 hours, complains of not being able to see from their left eye. The surgery had lasted 8 hours, and 1 unit of blood had been lost. During surgery, their systolic blood pressure had dropped to 80 mm Hg. […] They are a contact lens wearer. previously having a corrected visual acuity of 20/20 bilaterally.
There is a relative afferent pupillary defect on the left. They have a sizeable loss of their right visual field, which is illustrated in FIGS. 2A and 2B. […] Both pupils are reactive, varying in diameter from 3.0 to 3.5 mm.
Their extra-ocular muscle movements, intraocular pressures, and anterior segment exam, are within normal limits. […] The right optic disc is of normal color. […] It is pulsatile, and each time a pulse occurs, it jumps away from the optic disc. This can be clearly seen with a 90 diopter lens and a portable Kowa slit lamp, or with a 20 diopter lens and a Keeler indirect opthalmoscope. The retina appears normal in both eyes. […] A clinical diagnosis of posterior ischemic optic neuropathy with resultant field defect and pending loss of vision in the right eye is also made. MRI of the optic nerves confirms these diagnoses. Bilateral swelling of the optic nerves is seen behind the optic discs. The swelling is more marked in the left optic nerve than in the right. MRI confirms that they have a swollen optic left nerve. A diagnosis of bilateral ischemic optic neuropathy is made: the blood supply to the left eye has been occluded, and the same process is occurring in the right eye. Just prior to discovering their loss of sight, their serum calcium is low, and the nurse administers intravenous calcium.
To prevent compression of the blood supply in the right eye, the patient is given high dosed pulsed steroids. However, excitotoxic damage of the retina from reperfusion injury is almost certain in the absence of the treatment of the present invention.
The patient is administered 2 gm solumedrol, and then 1 gm every 6 hours. Dantrolene is administered at 2 mg/kg every 2 hours for three treatments, and then 1 mg/kg every 8 hours.

[2] = Dantrolene treatment of the patient of Example 2 (post-operative bilateral ischemic optic neuropathy), visual acuity and visual fields; assay type: in vivo, human; conditions: Example 2 patient
Description: Their past medical history is significant for an episode of hyperglycemia approximately 45 years previously. They have been a non-smoker for the last 20 years, and prior to that they were a heavy smoker.
The operation lasts for approximately 10 hours. They are under general anesthesia for the duration of the operation. The estimated blood loss is 2200 mL during the operation, of which 1200 mL is replaced via a cell saver, and an additional 2 units of blood is given along with crystalloids. Their blood pressure drops once during the operation to 89 mm Hg. Before the surgery they are able to read with glasses. […] Strong venous pulsations are seen at the optic disc of the left eye. A diagnosis of bilateral ischemic optic neuropathy is made.
(§1) He is placed on intravenous dantrolene, 2 mg/kg body weight q 2 hourly×3 followed q 8 hourly. In addition, […] is placed on solumedrol, 250 mg q 6 hourly. […] visual acuity fields are recorded on a daily basis. On day 3 dantrolene treatment is changed from intravenous to oral 500 mg po tid. On day 4 color vision is restored and on day 5 all treatment is stopped.

[3] = Serum level of dantrolene in the patient of Example 2; assay type: in vivo, human; conditions: Example 2 patient
Description: as §1
The serum level of dantrolene is 14×10^−6 gm/mL on day 4, and 15×10^−6 gm/mL on day 2.

excitotoxic damage = conditions: stated as known; cited from earlier work

**Q.** With `O=C1CN(/N=C/c2ccc(-c3ccc([N+](=O)[O-])cc3)o2)C(O)=N1` [Dantrolene] as the compound, how does the “vision of the left eye” value ([1]; 24 hours after initiation of treatment, baseline no perception of light) read?
**A.** light perception

**Q.** And the “corrected visual acuity in the right eye” value ([1]; 24 hours later, dantrolene 2 mg/kg every 2 hours x3 then 1 mg/kg every 8 hours, with solumedrol, baseline uncorrected 20/70)?
**A.** 20/30

**Q.** And the “vision of the left eye” value ([1]; 72 hours after treatment)?
**A.** starts to perceive hand movement

**Q.** What about the “uncorrected visual acuity in the right eye” value ([1]; by the fifth day, baseline 20/70) of the same compound?
**A.** 20/50

**Q.** What about the inferior field loss ([1]; right eye, at the fifth day (lessens from 48 hours after starting treatment)) of the same compound?
**A.** none

**Q.** What about the “corrected visual acuity in the left eye at distance” value ([1]; two months after discharge) of the same compound?
**A.** counting fingers

**Q.** What about the “corrected visual acuity in the left eye at near distance” value ([1]; two months after discharge) of the same compound?
**A.** 20/800

**Q.** What about the “visual acuity with glasses” value ([2]; 16 hours postoperatively, intravenous dantrolene 2 mg/kg q 2 hourly x3 then q 8 hourly, with solumedrol, baseline no light perception in either eye) of the same compound?
**A.** counting fingers OU in the superior visual fields

**Q.** What about the color vision ([2]; day 4) of the same compound?
**A.** restored

**Q.** And the “serum level of dantrolene” value ([3]; day 2 (intravenous dantrolene))?
**A.** 15×10^−6 gm/mL

**Q.** And the “serum level of dantrolene” value ([3]; day 4 (oral 500 mg po tid from day 3))?
**A.** 14×10^−6 gm/mL

**Q.** And the “excitotoxic damage in an animal seizure model” value (excitotoxic damage)?
**A.** prevents excitotoxic damage
